Assay results: patent US9125913B2, “Bcl-2-selective apoptosis-inducing agents for the treatment of cancer and immune diseases” (AbbVie Inc., priority 2008, dated 2015)

Tested on: GST-Bcl-2
Experiment: TR-FRET binding assay, Bcl-2
Conditions: TR-FRET Ki values
Outline: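 Ki values come from Wang's competitive-binding equation applied to TR-FRET signal (excitation 340/35 nm; emission 520/525 nm F-Bak peptide, 495/510 nm Tb antibody). Protein, probe and antibody incubated with compound 3 h at room temperature; dilution series began at 50 μM as 2× stock in 10% DMSO.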

Row | Compound | Binding selectivity ratio (Bcl-XL Ki/Bcl-2 Ki)
1 | CC1(C)CCC(CN2CCN(c3ccc(C(=O)NS(=O)(=O)c4cnc(OCC5CCOCC5)c(Br)c4)c(Oc4ccc5[nH]ccc5c4)c3)CC2)=C(c2ccc(Cl)cc2)C1 [EXAMPLE 329, N-{[5-bromo-6-(tetrahydro-2H-pyran-4-ylmethoxy)pyridin-3-yl]sulfonyl}-4-(4-{[2-(4-chlorophenyl)-4,4-dimethylcyclohex-1-en-1-yl]methyl}piperazin-1-yl)-2-(1H-indol-5-yloxy)benzamide] | >2319.5
2 | CC1(C)CCC(CN2CCN(c3ccc(C(=O)NS(=O)(=O)c4ccc(N[C@@H]5CCN(CC#N)C5)c([N+](=O)[O-])c4)c(Oc4cccc5[nH]cnc45)c3)CC2)=C(c2ccc(Cl)cc2)C1 [EXAMPLE 428, 2-(1H-benzimidazol-4-yloxy)-4-(4-{[2-(4-chlorophenyl)-4,4-dimethylcyclohex-1-en-1-yl]methyl}piperazin-1-yl)-N-[(4-{[(3R)-1-(cyanomethyl)pyrrolidin-3-yl]amino}-3-nitrophenyl)sulfonyl]benzamide] | 5832
3 | COCCNc1ccc(S(=O)(=O)NC(=O)c2ccc(N3CCN(CC4=C(c5ccc(Cl)cc5)CC(C)(C)CC4)CC3)cc2Oc2ccc3[nH]ccc3c2)cc1S(=O)(=O)C(F)(F)F [EXAMPLE 315, 4-(4-{[2-(4-chlorophenyl)-4,4-dimethylcyclohex-1-en-1-yl]methyl}piperazin-1-yl)-2-(1H-indol-5-yloxy)-N-({4-[(2-methoxyethyl)amino]-3-[(trifluoromethyl)sulfonyl]phenyl}sulfonyl)benzamide] | >190.7
4 | CC(c1ccccc1-c1ccc(Cl)cc1)N1CCN(c2ccc(C(=O)NS(=O)(=O)c3ccc(NN4CCN(C)CC4)c([N+](=O)[O-])c3)c(Oc3cccc4[nH]ccc34)c2)CC1 (centres unmarked) [EXAMPLE 217, 4-{4-[1-(4′-chloro-1,1′-biphenyl-2-yl)ethyl]piperazin-1-yl}-2-(1H-indol-4-yloxy)-N-({4-[(4-methylpiperazin-1-yl)amino]-3-nitrophenyl}sulfonyl)benzamide] | 171.1
5 | CNc1ccc(S(=O)(=O)NC(=O)c2ccc(N3CCN(CC4=C(c5ccc(Cl)cc5)CC(C)(C)CC4)CC3)cc2Oc2ccc3[nH]ccc3c2)cc1[N+](=O)[O-] [EXAMPLE 245, 4-(4-{[2-(4-chlorophenyl)-4,4-dimethylcyclohex-1-en-1-yl]methyl}piperazin-1-yl)-2-(1H-indol-5-yloxy)-N-{[4-(methylamino)-3-nitrophenyl]sulfonyl}benzamide] | >408.2
6 | CC1(C)CCC(CN2CCN(c3ccc(C(=O)NS(=O)(=O)c4cnc(OCC5(F)CCOCC5)c(Cl)c4)c(Oc4cccc5[nH]ncc45)c3)CC2)=C(c2ccc(Cl)cc2)C1 [EXAMPLE 404, N-({5-chloro-6-[(4-fluorotetrahydro-2H-pyran-4-yl)methoxy]pyridin-3-yl}sulfonyl)-4-(4-{[2-(4-chlorophenyl)-4,4-dimethylcyclohex-1-en-1-yl]methyl}piperazin-1-yl)-2-(1H-indazol-4-yloxy)benzamide] | 2423
7 | CC1(C)CCC(CN2CCN(c3ccc(C(=O)NS(=O)(=O)c4cnc(OCC5(F)CCOCC5)c(Cl)c4)c(Oc4cccc5[nH]cnc45)c3)CC2)=C(c2ccc(Cl)cc2)C1 [EXAMPLE 443, 2-(1H-benzimidazol-4-yloxy)-N-({5-chloro-6-[(4-fluorotetrahydro-2H-pyran-4-yl)methoxy]pyridin-3-yl}sulfonyl)-4-(4-{[2-(4-chlorophenyl)-4,4-dimethylcyclohex-1-en-1-yl]methyl}piperazin-1-yl)benzamide] | 1935.7
8 | CC(=O)N1CCC(Nc2ccc(S(=O)(=O)NC(=O)c3ccc(N4CCN(CC5=C(c6ccc(Cl)cc6)CC(C)(C)CC5)CC4)cc3Oc3cccc4[nH]ccc34)cc2[N+](=O)[O-])CC1 [EXAMPLE 337, N-({4-[(1-acetylpiperidin-4-yl)amino]-3-nitrophenyl}sulfonyl)-4-(4-{[2-(4-chlorophenyl)-4,4-dimethylcyclohex-1-en-1-yl]methyl}piperazin-1-yl)-2-(1H-indol-4-yloxy)benzamide] | >1233.3
9 | CC1(C)CCC(CN2CCN(c3ccc(C(=O)NS(=O)(=O)c4ccc(NC5CCCCC5N)c([N+](=O)[O-])c4)c(Oc4ccc5[nH]ccc5c4)c3)CC2)=C(c2ccc(Cl)cc2)C1 (centres unmarked) [EXAMPLE 208, N-({4-[(2-aminocyclohexyl)amino]-3-nitrophenyl}sulfonyl)-4-(4-{[2-(4-chlorophenyl)-4,4-dimethylcyclohex-1-en-1-yl]methyl}piperazin-1-yl)-2-(1H-indol-5-yloxy)benzamide] | >1120.6
10 | CN(C)CC(=O)N1CCO[C@@H](CNc2ccc(S(=O)(=O)NC(=O)c3ccc(N4CCN(CC5=C(c6ccc(Cl)cc6)CC(C)(C)CC5)CC4)cc3Oc3cccc4[nH]cnc34)cc2[N+](=O)[O-])C1 [EXAMPLE 438, 2-(1H-benzimidazol-4-yloxy)-4-(4-{[2-(4-chlorophenyl)-4,4-dimethylcyclohex-1-en-1-yl]methyl}piperazin-1-yl)-N-{[4-({[(2S)-4-(N,N-dimethylglycyl)morpholin-2-yl]methyl}amino)-3-nitrophenyl]sulfonyl}benzamide] | 34.5
11 | 4-(4-{[2-(4-chlorophenyl)-4,4-dimethylcyclohex-1-en-1-yl]methyl}piperazin-1-yl)-N-{[4-({[Cis-4-hydroxy-1-adamantyl]methyl}amino)-3-nitrophenyl]sulfonyl}-2-(1H-indol-5-yloxy)benzamide [EXAMPLE 322] | >3591.4
12 | CC1(C)CCC(CN2CCN(c3ccc(C(=O)NS(=O)(=O)c4ccc(NCC5CN(CC(F)F)CCO5)c([N+](=O)[O-])c4)c(Oc4cccc5[nH]cnc45)c3)CC2)=C(c2ccc(Cl)cc2)C1 (centres unmarked) [EXAMPLE 415, 2-(1H-benzimidazol-4-yloxy)-4-(4-{[2-(4-chlorophenyl)-4,4-dimethylcyclohex-1-en-1-yl]methyl}piperazin-1-yl)-N-{[4-({[4-(2,2-difluoroethyl)morpholin-2-yl]methyl}amino)-3-nitrophenyl]sulfonyl}benzamide] | 17326.89211
13 | CC1(C)CCC(CN2CCN(c3ccc(C(=O)NS(=O)(=O)c4ccc(OCC5CCOCC5)c(C(N)=O)c4)c(Oc4ccc5[nH]ccc5c4)c3)CC2)=C(c2ccc(Cl)cc2)C1 [EXAMPLE 357, N-{[3-(aminocarbonyl)-4-(tetrahydro-2H-pyran-4-ylmethoxy)phenyl]sulfonyl}-4-(4-{[2-(4-chlorophenyl)-4,4-dimethylcyclohex-1-en-1-yl]methyl}piperazin-1-yl)-2-(1H-indol-5-yloxy)benzamide] | >493.9
14 | CN1CC[C@H](Nc2ccc(S(=O)(=O)NC(=O)c3ccc(N4CCN(CC5=C(c6ccc(Cl)cc6)CC(C)(C)CC5)CC4)cc3Oc3ccc4[nH]ccc4c3)cc2[N+](=O)[O-])C1 [EXAMPLE 234, 4-(4-{[2-(4-chlorophenyl)-4,4-dimethylcyclohex-1-en-1-yl]methyl}piperazin-1-yl)-2-(1H-indol-5-yloxy)-N-[(4-{[(3S)-1-methylpyrrolidin-3-yl]amino}-3-nitrophenyl)sulfonyl]benzamide] | 66.3
